Laboratory results published in patent US20250186541A1, “DLL3 TARGETING PEPTIDES AND CONSTRUCTS THEREOF” (MARIANA ONCOLOGY INC., priority 2023, published 2025).
Numbered stars: 1 amine (or outer) side, 2 acyl side, 3 side chain; on linkers, the order of the positions; unused ones are H or OH. Bridge positions count the residues as written; N and C are the ends. Square brackets hold non-standard residues; d marks the D form. Peptide text beside a SMILES is read from it. * marks the point of attachment. Ala(1-CH2CO2H-4-piperidyl) = N[C@@H](CC1CCN(CC(=O)O)CC1)C(=O)O; Ala(piperidin-4-yl) = O=C([C@H](CC1CCN([*:3])CC1)N[*:1])[*:2]; DOTA = O=C(O)CN1CCN(CC(=O)O)CCN(CC(=O)*)CCN(CC(=O)O)CC1; Phe(4-CH2NH2) = NCc1ccc(C[C@H](N)C(=O)O)cc1; 1Nal = N[C@@H](Cc1cccc2ccccc12)C(=O)O; 2Nal = N[C@@H](Cc1ccc2ccccc2c1)C(=O)O; tBuAla = CC(C)(C)C[C@H](N)C(=O)O; dAllylGly = C=CC[C@@H](N)C(=O)O; αMeD = C[C@](N)(CC(=O)O)C(=O)O; AllylGly = C=CC[C@H](N)C(=O)O; αMeP = C[C@@]1(C(=O)O)CCCN1

target: T1, human DLL3 (Homo sapiens, UniProt Q9NYJ7); assay: Affinity determination by Surface Plasmon Resonance (SPR), Biacore, 1:1 binding model; conditions: biotinylated human DLL3 on streptavidin chip, 25° C.; NB = nonbinding
T1 construct: biotin (biotinylated)
T1 sequence (Q9NYJ7 27-618): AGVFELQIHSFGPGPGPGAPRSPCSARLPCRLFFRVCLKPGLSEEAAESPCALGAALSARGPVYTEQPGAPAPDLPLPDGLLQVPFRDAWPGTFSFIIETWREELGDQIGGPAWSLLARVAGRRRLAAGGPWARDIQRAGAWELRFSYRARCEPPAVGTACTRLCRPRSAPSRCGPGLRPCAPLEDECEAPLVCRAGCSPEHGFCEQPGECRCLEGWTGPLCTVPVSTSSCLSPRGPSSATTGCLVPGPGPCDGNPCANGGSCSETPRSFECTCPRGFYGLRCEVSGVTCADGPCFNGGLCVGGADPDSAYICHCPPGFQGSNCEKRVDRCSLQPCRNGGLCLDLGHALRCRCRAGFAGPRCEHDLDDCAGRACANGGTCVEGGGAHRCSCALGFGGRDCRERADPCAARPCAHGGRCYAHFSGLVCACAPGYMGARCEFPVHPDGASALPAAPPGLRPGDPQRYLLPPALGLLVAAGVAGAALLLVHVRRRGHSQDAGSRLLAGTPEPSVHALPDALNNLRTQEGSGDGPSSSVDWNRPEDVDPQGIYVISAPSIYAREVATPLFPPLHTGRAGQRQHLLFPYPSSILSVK
Summary of the method: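 SPR with biotinylated human DLL3 captured on a streptavidin chip, with a reference surface subtracted. Samples were injected at several concentrations at 100 μL/min in phosphate buffer with 137 mM NaCl, 2.7 mM KCl, 0.05% P20 and 2% DMSO. Kinetic and affinity constants came from a 1:1 binding fit.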

Kd [nM] | SPR KD (nM) | Structure (SMILES)
1.66 |  | C[C@@H](NC(=O)CN1CCN(CC(=O)O)CCN(CC(=O)O)CCN(CC(=O)O)CC1)C(=O)N[C@@H](CO)C(=O)N[C@@](C)(CC(=O)O)C(=O)N[C@H]1C/C=C/C[C@@H](C(=O)N2CCC[C@@]2(C)C(=O)N[C@@H](Cc2ccccc2)C(=O)N[C@@H](CC(=O)O)C(N)=O)NC(=O)[C@H](CC(N)=O)NC(=O)[C@H](Cc2ccc3ccccc3c2)NC(=O)[C@H](CC2CCNCC2)NC(=O)[C@H](CC(C)(C)C)NC(=O)[C@H](Cc2cccc3ccccc23)NC1=O [compound 197, DOTA-(D-Ala)-S-(aMe-Asp)-AllyG(4)-(1Nal)-(t-Bu-Ala)-[3-(4-piperidinyl)-Ala]-(2Nal)-N-AllyG(4)-(aMe-P)-F-D-CONH2] ({DOTA}-[dA]S[αMeD][AllylGly][1Nal][tBuAla][Ala(piperidin-4-yl)][2Nal]N[AllylGly][αMeP]FD-NH2; staple (E) 4-10)
 | heterogenous binding | CC(=O)N[C@@H](CC1CCNCC1)C(=O)N[C@@H](CO)C(=O)N[C@@H](CC(=O)O)C(=O)N[C@H]1C/C=C\C[C@@H](C(=O)N2CCC[C@@]2(C)C(=O)N[C@@H](Cc2ccccc2)C(=O)N[C@@H](CC(=O)O)C(N)=O)NC(=O)[C@H](CC(N)=O)NC(=O)[C@H](Cc2ccc3ccccc3c2)NC(=O)[C@H](Cc2ccc(CNC(=O)CN3CCN(CC(=O)O)CCN(CC(=O)O)CCN(CC(=O)O)CC3)cc2)NC(=O)[C@H](CC(C)(C)C)NC(=O)[C@H](Cc2cccc3ccccc23)NC1=O [compound 198, Ac-(D-Ala)-S-D-AllyG(4)-(1Nal)-(t-Bu-Ala)-[PAF(DOTA)]-(2Nal)-N-AllyG(4)-(aMe-P)-F-D-CONH2] (Ac-[Ala(piperidin-4-yl)]SD[AllylGly][1Nal][tBuAla][Phe(4-CH2NH2)](DOTA)[2Nal]N[AllylGly][αMeP]FD-NH2; staple (Z) 4-10)
0.21 |  | CC(=O)N[C@@H](CC1CCNCC1)C(=O)N[C@@H](CO)C(=O)N[C@@H](CC(=O)O)C(=O)N[C@H]1C/C=C/C[C@@H](C(=O)N2CCC[C@@]2(C)C(=O)N[C@@H](Cc2ccccc2)C(=O)N[C@@H](CC(=O)O)C(N)=O)NC(=O)[C@H](CC(N)=O)NC(=O)[C@H](Cc2ccc3ccccc3c2)NC(=O)[C@H](Cc2ccc(CNC(=O)CN3CCN(CC(=O)O)CCN(CC(=O)O)CCN(CC(=O)O)CC3)cc2)NC(=O)[C@H](CC(C)(C)C)NC(=O)[C@H](Cc2cccc3ccccc23)NC1=O [compound 199, Ac-(D-Ala)-S-D-AllyG(4)-(1Nal)-(t-Bu-Ala)-[PAF(DOTA)]-(2Nal)-N-AllyG(4)-(aMe-P)-F-D-CONH2] (Ac-[Ala(piperidin-4-yl)]SD[AllylGly][1Nal][tBuAla][Phe(4-CH2NH2)](DOTA)[2Nal]N[AllylGly][αMeP]FD-NH2; staple (E) 4-10)
14.6 |  | CC(=O)N[C@@H](CC1CCNCC1)C(=O)N[C@@H](CO)C(=O)N[C@@H](CC(=O)O)C(=O)N[C@H]1C/C=C\C[C@@H](C(=O)N2CCC[C@@]2(C)C(=O)N[C@@H](Cc2ccccc2)C(=O)N[C@@H](CC(=O)O)C(N)=O)NC(=O)[C@H](CC(N)=O)NC(=O)[C@H](Cc2ccc3ccccc3c2)NC(=O)[C@H](Cc2ccc(CNC(=O)CN3CCN(CC(=O)O)CCN(CC(=O)O)CCN(CC(=O)O)CC3)cc2)NC(=O)[C@H](CC(C)(C)C)NC(=O)[C@H](Cc2cccc3ccccc23)NC1=O [compound 201, Ac-[3-(4-piperidinyl)-Ala]-S-D-AllyG(4)-(1Nal)-(t-Bu-Ala)-[PAF(DOTA)]-(2Nal)-N-AllyG(4)-(aMe-P)-F-D-CONH2] (Ac-[Ala(piperidin-4-yl)]SD[AllylGly][1Nal][tBuAla][Phe(4-CH2NH2)](DOTA)[2Nal]N[AllylGly][αMeP]FD-NH2; staple (Z) 4-10)
0.53 |  | CC(=O)N[C@@H](CC1CCNCC1)C(=O)N[C@@H](CO)C(=O)N[C@@H](CC(=O)O)C(=O)N[C@H]1C/C=C/C[C@@H](C(=O)N2CCC[C@@]2(C)C(=O)N[C@@H](Cc2ccccc2)C(=O)N[C@@H](CC(=O)O)C(N)=O)NC(=O)[C@H](CC(N)=O)NC(=O)[C@H](Cc2ccc3ccccc3c2)NC(=O)[C@H](Cc2ccc(CNC(=O)CN3CCN(CC(=O)O)CCN(CC(=O)O)CCN(CC(=O)O)CC3)cc2)NC(=O)[C@H](CC(C)(C)C)NC(=O)[C@H](Cc2cccc3ccccc23)NC1=O [compound 202, Ac-[3-(4-piperidinyl)-Ala]-S-D-AllyG(4)-(1Nal)-(t-Bu-Ala)-[PAF(DOTA)]-(2Nal)-N-AllyG(4)-(aMe-P)-F-D-CONH2] (Ac-[Ala(piperidin-4-yl)]SD[AllylGly][1Nal][tBuAla][Phe(4-CH2NH2)](DOTA)[2Nal]N[AllylGly][αMeP]FD-NH2; staple (E) 4-10)
1.3 |  | CC(=O)N[C@H](C)C(=O)N[C@@H](CO)C(=O)N[C@@H](CC(=O)O)C(=O)N[C@H]1C/C=C/C[C@@H](C(=O)N2CCC[C@@]2(C)C(=O)N[C@@H](Cc2ccccc2)C(=O)N[C@@H](CC(=O)O)C(N)=O)NC(=O)[C@H](CC(N)=O)NC(=O)[C@H](Cc2ccc3ccccc3c2)NC(=O)[C@H](Cc2ccc(CNC(=O)CN3CCN(CC(=O)O)CCN(CC(=O)O)CCN(CC(=O)O)CC3)cc2)NC(=O)[C@H](CC2CCNCC2)NC(=O)[C@H](Cc2cccc3ccccc23)NC1=O [compound 204, Ac-(D-Ala)-S-D-AllyG(4)-(1Nal)-[3-(4-piperidinyl)-Ala]-[PAF(DOTA)]-(2Nal)-N-AllyG(4)-(aMe-P)-F-D-CONH2] (Ac-[dA]SD[AllylGly][1Nal][Ala(piperidin-4-yl)][Phe(4-CH2NH2)](DOTA)[2Nal]N[AllylGly][αMeP]FD-NH2; staple (E) 4-10)
31 |  | CC(=O)N[C@@H](CC1CCN(CC(=O)O)CC1)C(=O)N[C@@H](CO)C(=O)N[C@@](C)(CC(=O)O)C(=O)N[C@H]1C/C=C\C[C@@H](C(=O)N2CCC[C@@]2(C)C(=O)N[C@@H](Cc2ccccc2)C(=O)N[C@@H](CC(=O)O)C(N)=O)NC(=O)[C@H](CC(N)=O)NC(=O)[C@H](Cc2ccc3ccccc3c2)NC(=O)[C@H](Cc2ccc(CNC(=O)CN3CCN(CC(=O)O)CCN(CC(=O)O)CCN(CC(=O)O)CC3)cc2)NC(=O)[C@H](CC(C)(C)C)NC(=O)[C@H](Cc2cccc3ccccc23)NC1=O [compound 207, Ac-[3-(piperidinyl-4-CH2CO2H)-Ala]-S-(aMe-Asp)-AllyG(4)-(1Nal)-(t-Bu-Ala)-[PAF(DOTA)]-(2Nal)-N-AllyG(4)-(aMe-P)-F-D-CONH2] (Ac-[Ala(1-CH2CO2H-4-piperidyl)]S[αMeD][AllylGly][1Nal][tBuAla][Phe(4-CH2NH2)](DOTA)[2Nal]N[AllylGly][αMeP]FD-NH2; staple (Z) 4-10)
0.386 |  | CC(=O)N[C@@H](CC1CCN(CC(=O)O)CC1)C(=O)N[C@@H](CO)C(=O)N[C@@](C)(CC(=O)O)C(=O)N[C@H]1C/C=C/C[C@@H](C(=O)N2CCC[C@@]2(C)C(=O)N[C@@H](Cc2ccccc2)C(=O)N[C@@H](CC(=O)O)C(N)=O)NC(=O)[C@H](CC(N)=O)NC(=O)[C@H](Cc2ccc3ccccc3c2)NC(=O)[C@H](Cc2ccc(CNC(=O)CN3CCN(CC(=O)O)CCN(CC(=O)O)CCN(CC(=O)O)CC3)cc2)NC(=O)[C@H](CC(C)(C)C)NC(=O)[C@H](Cc2cccc3ccccc23)NC1=O [compound 208, Ac-[3-(piperidinyl-4-CH2CO2H)-Ala]-S-(aMe-Asp)-AllyG(4)-(1Nal)-(t-Bu-Ala)-[PAF(DOTA)]-(2Nal)-N-AllyG(4)-(aMe-P)-F-D-CONH2] (Ac-[Ala(1-CH2CO2H-4-piperidyl)]S[αMeD][AllylGly][1Nal][tBuAla][Phe(4-CH2NH2)](DOTA)[2Nal]N[AllylGly][αMeP]FD-NH2; staple (E) 4-10)
0.591 |  | CC(=O)N[C@@H](CC1CCNCC1)C(=O)N[C@@H](CO)C(=O)N[C@@H](CC(=O)O)C(=O)N[C@H]1CCCC[C@@H](C(=O)N2CCC[C@@]2(C)C(=O)N[C@@H](Cc2ccccc2)C(=O)N[C@@H](CC(=O)O)C(N)=O)NC(=O)[C@H](CC(N)=O)NC(=O)[C@H](Cc2ccc3ccccc3c2)NC(=O)[C@H](Cc2ccc(CNC(=O)CN3CCN(CC(=O)O)CCN(CC(=O)O)CCN(CC(=O)O)CC3)cc2)NC(=O)[C@H](CC(C)(C)C)NC(=O)[C@H](Cc2cccc3ccccc23)NC1=O [compound 209, Ac-[3-(4-piperidinyl)-Ala]-S-D-AllyG(4)*-(1Nal)-(t-Bu-Ala)-[PAF(DOTA)]-(2Nal)-N-AllyG(4)*-(aMe-P)-F-D-CONH2]
> 100 |  | CC(=O)N[C@@H](CC1CCNCC1)C(=O)N[C@@H](CO)C(=O)N[C@@H](CC(=O)O)C(=O)N[C@@H]1C/C=C/C[C@@H](C(=O)N2CCC[C@@]2(C)C(=O)N[C@@H](Cc2ccccc2)C(=O)N[C@@H](CC(=O)O)C(N)=O)NC(=O)[C@H](CC(N)=O)NC(=O)[C@H](Cc2ccc3ccccc3c2)NC(=O)[C@H](Cc2ccc(CNC(=O)CN3CCN(CC(=O)O)CCN(CC(=O)O)CCN(CC(=O)O)CC3)cc2)NC(=O)[C@H](CC(C)(C)C)NC(=O)[C@H](Cc2cccc3ccccc23)NC1=O [compound 210, Ac-[3-(4-piperidinyl)-Ala]-S-D-D-AllyG(4)-(1Nal)-(t-Bu-Ala)-[PAF(DOTA)]-(2Nal)-N-AllyG(4)-(aMe-P)-F-D-CONH2] (Ac-[Ala(piperidin-4-yl)]SD[dAllylGly][1Nal][tBuAla][Phe(4-CH2NH2)](DOTA)[2Nal]N[AllylGly][αMeP]FD-NH2; staple (E) 4-10)
